Measured values as given in ChEMBL document CHEMBL3217537, “The importance of solvation in the design of ligands targeting membrane proteins” (Medchemcomm, 2011).

Molecular target: 5-hydroxytryptamine receptor 4 (Rattus norvegicus, UniProt Q62758)
Assay: Displacement of [3H]GR113808 from 5-HT4 receptor in rat striatal membranes after 30 mins by liquid scintillation spectrometric analysis
Assay type: cell membranes, Striatum, Membrane

5-hydroxytryptamine receptor 4, sequence (Q62758 whole entry): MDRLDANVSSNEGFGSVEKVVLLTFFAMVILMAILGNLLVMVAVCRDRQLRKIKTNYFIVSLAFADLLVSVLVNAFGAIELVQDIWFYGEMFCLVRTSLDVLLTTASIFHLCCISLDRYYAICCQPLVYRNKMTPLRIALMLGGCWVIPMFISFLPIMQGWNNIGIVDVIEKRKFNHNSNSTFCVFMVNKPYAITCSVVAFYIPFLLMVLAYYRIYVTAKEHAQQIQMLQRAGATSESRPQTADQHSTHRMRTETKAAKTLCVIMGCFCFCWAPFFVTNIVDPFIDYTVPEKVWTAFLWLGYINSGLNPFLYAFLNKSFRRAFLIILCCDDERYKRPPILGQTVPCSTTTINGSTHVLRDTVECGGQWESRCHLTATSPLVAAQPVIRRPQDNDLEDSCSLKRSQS

Row | Ki [nM] | Compound
1 | 0.15 | CCCCN1CCC(CNC(=S)c2cccc3[nH]cnc23)CC1
2 | 0.081 | CCCCN1CCC(CNC(=S)c2cc(Cl)cc3[nH]cnc23)CC1
